Biological target: T1, hTLR9 (Homo sapiens, UniProt Q9NR96)
T1 sequence (Q9NR96 26-1032): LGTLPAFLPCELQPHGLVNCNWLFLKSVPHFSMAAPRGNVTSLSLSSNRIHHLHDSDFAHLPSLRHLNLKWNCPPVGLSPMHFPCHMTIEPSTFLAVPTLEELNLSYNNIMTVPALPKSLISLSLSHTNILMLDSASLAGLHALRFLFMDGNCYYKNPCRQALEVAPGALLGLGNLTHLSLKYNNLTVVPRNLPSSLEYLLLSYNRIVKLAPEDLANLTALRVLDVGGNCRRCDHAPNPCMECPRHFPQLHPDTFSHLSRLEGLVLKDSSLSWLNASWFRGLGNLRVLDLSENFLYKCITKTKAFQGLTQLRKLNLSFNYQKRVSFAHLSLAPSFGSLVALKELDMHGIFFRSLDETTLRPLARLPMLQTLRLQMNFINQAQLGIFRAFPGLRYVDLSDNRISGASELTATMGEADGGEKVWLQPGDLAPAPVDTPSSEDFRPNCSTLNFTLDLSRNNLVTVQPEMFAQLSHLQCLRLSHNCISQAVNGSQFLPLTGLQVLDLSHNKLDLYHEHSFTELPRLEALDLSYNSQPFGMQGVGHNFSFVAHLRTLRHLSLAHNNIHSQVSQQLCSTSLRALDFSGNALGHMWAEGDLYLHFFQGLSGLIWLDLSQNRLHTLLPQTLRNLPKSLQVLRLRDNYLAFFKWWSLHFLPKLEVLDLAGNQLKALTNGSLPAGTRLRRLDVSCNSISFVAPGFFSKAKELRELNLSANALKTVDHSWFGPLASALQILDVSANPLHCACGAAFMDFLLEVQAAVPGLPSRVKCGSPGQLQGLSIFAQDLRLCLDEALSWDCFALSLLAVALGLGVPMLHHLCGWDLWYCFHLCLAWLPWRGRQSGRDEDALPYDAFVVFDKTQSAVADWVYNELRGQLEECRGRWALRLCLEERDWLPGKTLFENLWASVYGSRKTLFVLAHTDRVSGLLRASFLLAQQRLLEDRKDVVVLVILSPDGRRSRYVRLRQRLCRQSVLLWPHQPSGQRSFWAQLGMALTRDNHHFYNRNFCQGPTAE
Test: HEK293-Blue-hTLR-9 cells assay (SEAP reporter, ODN2006 stimulation)
Format: cell-based
Parameters: host or cells: HEK293 (HEK-Blue hTLR9)
Conditions: HEK293-Blue-hTLR9 cells, ODN2006, 20 hrs; read-out: HEK/hTLR9 IC50
Procedure, shortened: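 HEK293-Blue-hTLR9 cells with NF-κB/AP-1-driven SEAP reporter treated with serially diluted compound (1% DMSO final) plus ODN2006 for 20 h at 37 °C. Supernatant SEAP measured with QUANTI-Blue, 2 h at 37 °C, absorbance 620–655 nm; antagonism seen as reduced reporter signal.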

IC50	Structure (SMILES)
49 nM	CO[C@@H]1CN(c2nccc(N3CCN(C[C@H]4CN(c5ccc(C#N)c6nccnc56)C[C@@H](C)O4)CC3)n2)C[C@H]1N [Example 98, 8-[(2S,6R)-2-[[4-[2-[(3R,4R)-3-amino-4-methoxy-pyrrolidin-1-yl]pyrimidin-4-yl]piperazin-1-yl]methyl]-6-methyl-morpholin-4-yl]quinoxaline-5-carbonitrile]
42 nM	CO[C@@H]1CN(c2nccc(N3CCN(C[C@H]4CN(c5ccc(C#N)c6ncccc56)C[C@@H](C)O4)CC3)n2)C[C@@H]1N [Example 92, 5-[(2S,6R)-2-[[4-[2-[(3S,4R)-3-amino-4-methoxy-pyrrolidin-1-yl]pyrimidin-4-yl]piperazin-1-yl]methyl]-6-methyl-morpholin-4-yl]quinoline-8-carbonitrile]

Source: patent US20210395239A1 (Hoffmann-La Roche Inc., priority 2018, published 2021)
